# In patent US8581584B2, “Membrane proteins, mechanisms of action and uses thereof” (priority 2010, dated 2013):
# Biological target: M2 conductance domain (residues 22-62) (Influenza A virus, UniProt P0DOF5, C50S)
# Format: biochemical, influenza A Udorn/1972 virus
compound,measurement,value
NC12CC3CC(CC(C3)C1)C2 [amantadine],blockage of proton uptake,~80%
same,"proton flux, initial slope of proton uptake per tetramer vs time",30 protons per tetramer per second
